Reference: article PMC11844072, “Novel 5,6-dichlorobenzimidazole derivatives as dual BRAFWT and BRAFV600E inhibitors: design, synthesis, anti-cancer activity and molecular dynamics simulations” (BMC Chemistry, 2025)

Columns and labels:
Experiment in all cases: NCI 60 single concentration growth inhibition
Assay type in all cases: cell-based, human
MDA-MB-468 = conditions: Homo sapiens, MDA-MB-468, Breast cancer, read-out: GI%
Method in brief: (§1)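 One-concentration growth inhibition used 10 µM over 48 h in RPMI 1640/5% FBS, with sulforhodamine B protein staining as the end point. Percent growth is expressed relative to untreated control cells.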

UACC-62 = conditions: Homo sapiens, UACC-62, Melanoma, read-out: GI%
Method in brief: as §1

MDA-MB-231/ATCC = conditions: Homo sapiens, Breast cancer, read-out: GI%
Method in brief: as §1

HS 578T = conditions: Homo sapiens, Breast cancer, read-out: GI%
Method in brief: as §1

SK-MEL-2 = conditions: Homo sapiens, SK-MEL-2, Melanoma, read-out: GI%
Method in brief: as §1

RXF 393 = conditions: Homo sapiens, RXF 393, Renal cancer, read-out: GI%
Method in brief: as §1

SK-MEL-5 = conditions: Homo sapiens, SK-MEL-5, Melanoma, read-out: GI%
Method in brief: as §1

KM12 = conditions: Homo sapiens, KM12, Colon cancer, read-out: GI%
Method in brief: as §1

CCRF-CEM = conditions: Homo sapiens, Leukemia, read-out: GI%
Method in brief: as §1

MDA-MB-435 = conditions: Homo sapiens, MDA-MB-435, Melanoma, read-out: GI%
Method in brief: as §1

UACC-257 = conditions: Homo sapiens, UACC-257, Melanoma, read-out: GI%
Method in brief: as §1

HL-60(TB) = conditions: Homo sapiens, Leukemia, read-out: GI%
Method in brief: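 Read-out is SRB absorbance at 515 nm after TCA fixation (10% for adherent lines, 16% for suspension lines). Drugs were applied for 48 h following a 24 h plating period. Growth percentages came from time-zero, control and treated absorbances.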

NCI-H23 = conditions: Homo sapiens, NCI-H23, Non-small cell lung cancer, read-out: GI%
Method in brief: as §1

M14 = conditions: Homo sapiens, M14, Melanoma, read-out: GI%
Method in brief: as §1

OVCAR-5 = conditions: Homo sapiens, OVCAR-5, Ovarian cancer, read-out: GI%
Method in brief: as §1

MOLT-4 = conditions: Homo sapiens, MOLT-4, Leukemia, read-out: GI%
Method in brief: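 Suspension cells such as leukaemia lines are fixed with 80% TCA added to settled cells, to 16% final, while other lines are fixed at 10% TCA. Both are then SRB-stained after 48 h of drug exposure at 37 °C.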

CAKI-1 = conditions: Homo sapiens, CAKI-1, Renal cancer, read-out: GI%
Method in brief: as §1

SF-268 = conditions: Homo sapiens, SF-268, CNS cancer, read-out: GI%
Method in brief: as §1

RPMI-8226 = conditions: Homo sapiens, RPMI-8226, Leukemia, read-out: GI%
Method in brief: as §1

T-47D = conditions: Homo sapiens, T47D, Breast cancer, read-out: GI%
Method in brief: as §1

BT-549 = conditions: Homo sapiens, BT-549, Breast cancer, read-out: GI%
Method in brief: as §1

HCT-116 = conditions: Homo sapiens, HCT-116, Colon cancer, read-out: GI%
Method in brief: as §1

Row | Structure (SMILES) | inhibition at 10 µM (MDA-MB-468) [%] | inhibition at 10 µM (UACC-62) [%] | inhibition at 10 µM (MDA-MB-231/ATCC) [%] | inhibition at 10 µM (HS 578T) [%] | inhibition at 10 µM (SK-MEL-2) [%] | inhibition at 10 µM (RXF 393) [%] | inhibition at 10 µM (SK-MEL-5) [%] | inhibition at 10 µM (KM12) [%] | inhibition at 10 µM (CCRF-CEM) [%] | inhibition at 10 µM (MDA-MB-435) [%] | inhibition at 10 µM (UACC-257) [%] | inhibition at 10 µM (HL-60(TB)) [%] | inhibition at 10 µM (NCI-H23) [%] | inhibition at 10 µM (M14) [%] | inhibition at 10 µM (OVCAR-5) [%] | inhibition at 10 µM (MOLT-4) [%] | inhibition at 10 µM (CAKI-1) [%] | inhibition at 10 µM (SF-268) [%] | inhibition at 10 µM (RPMI-8226) [%] | inhibition at 10 µM (T-47D) [%] | other results
1 | COc1ccc(-c2nc3cc(Cl)c(Cl)cc3n2CC(=O)NN=Cc2ccc(O)c(OC)c2)cc1 [Compound 10l, 2-(5,6-Dichloro-2-(4-methoxyphenyl)-1H-benzo[d]imidazol-1-yl)-N'-(4-hydroxy-3-methoxybenzylidene)acetohydrazide] | 99 | 33.6 | 17.2 | 32.7 | 18.6 | 32.2 | 57.9 | 25.4 | 46.9 | 42.2 | 36.3 | 44.5 | 15 | 33 | < 5 | 70.8 | 55.3 | 53.7 | 48.3 | 51.3 | inhibition at 10 µM (BT-549): 50.2%; inhibition at 10 µM (HCT-116): 31.6%
2 | COC(=O)COc1cc(C=NNC(=O)Cn2c(-c3ccc(OC)cc3)nc3cc(Cl)c(Cl)cc32)ccc1OC [Compound 10o, Methyl-2-(5-((2-(2-(5,6-dichloro-2-(4-methoxyphenyl)-1H-benzo[d]imidazol-1-yl)acetyl)hydrazono)methyl)-2-methoxyphenoxy)acetate] | 118 | 24.3 | 90.1 | 128 | 26.6 | 129 | 6.53 | < 5 | 16.9 | 45.5 | 41.4 | < 5 | 7.03 | 36.5 | < 5 | 40.4 | 37 | 18.6 | 17.9 | 106 | inhibition at 10 µM (BT-549): < 5%; inhibition at 10 µM (HCT-116): 22.9%
3 | COC(=O)COc1ccc(C=NNC(=O)Cn2c(-c3ccc(OC)cc3)nc3cc(Cl)c(Cl)cc32)cc1OC [Compound 10p, Methyl-2-(4-((2-(2-(5,6-dichloro-2-(4-methoxyphenyl)-1H-benzo[d]imidazol-1-yl)acetyl)hydrazono)methyl)-2-methoxyphenoxy)acetate] | 159 | 36.5 | 64.6 | 118 | 24.1 | 186 | 6.06 | < 5 | 21.1 | 31.9 | 22.7 | < 5 | < 5 | < 5 | < 5 | 13.7 | 16.5 | < 5 | 15.7 | 81.1 | inhibition at 10 µM (BT-549): 15.1%; inhibition at 10 µM (HCT-116): 25.1%
